Earlier results on one compound are cited in patent US11285148B1 (King Abdulaziz University, priority 2021, dated 2022).

This series deals with yeast isolates obtained from cases of keratitis.

As to `CC(=O)N1CCN(c2ccc(OCC3COC(Cn4ccnc4)(c4ccc(Cl)cc4Cl)O3)cc2)CC1` (stereo not shown) [KET, Ketoconazole], the Minimum inhibitory concentration was 0.015 to 0.125 µg/mL.
